Data published in US12496357B2, “Compositions and methods for treating sickle cell disease” (Yale University, priority 2019, dated 2025).

Columns and labels:
[1] = tested on: SCD mutation (β-globin gene), bulk mouse bone marrow cells; assay: SCD gene correction by ddPCR of gDNA, bulk bone marrow cells treated ex vivo; type: cell-based; conditions: for effect of DNA repair modulator on editing vs NP only: PLA-HPG nanoparticles encapsulating tcPNA 2 or sertcPNA 2; for effect of added factor on gene editing frequencies by ddPCR: bulk bone marrow and HSPCs (lin−) treated with tcPNA 2 nanoparticles, particularly in HSPCs
Experimental: Bulk mouse bone marrow cells were treated with PLGA NPs encapsulating tcPNA 1A, 2A, 3A and correcting donor DNA molecules.
Bulk bone marrow cells were treated with PLGA NPs encapsulating modified (tc PNA 2A) and unmodified versions (tc PNA 2) of PNA sequence. 72 hours after treatment, gDNA was isolated and analyzed for editing frequencies by ddPCR.
(§1) Bulk bone marrow cells were treated with PLGA NPs encapsulating unmodified PNA (tcPNA 2). 72 hours after treatment HSPCs, were isolated from bulk cells via negative and positive selection, and gene editing all three populations was compared.
(§2) Bulk bone marrow and HSPCs (lin^−) were treated with tcPNA 2 nanoparticles and combinations of stem cell factor, erythropoietin, and plerixafor. 72 hours after treatment, gDNA was isolated and analyzed for editing frequencies by ddPCR.
Bulk bone marrow cells were treated with tcPNA 2 encapsulated into poly(lactic-co-glycolic acid) (PLGA), or poly(lactic acid)PLA-HPG.
Nanoparticles made from poly(lactic acid) (PLA) conjugated to hyperbranched polyglycerols (HPG), referred to as PLA-HPG, were synthesized using a double emulsion solvent evaporation protocol. Briefly, 50 mg of PLA-HPG was dissolved in 2.4 mL of ethyl acetate and 0.6 mL of DMSO. PNA and donor DNA were heated to 60° C. for 10 minutes, mixed, and immediately added dropwise to the polymer solution under vortex. This 1st emulsion (water-in-oil) was sonicated 3 times at 38% amplitude for 10 seconds using a probe sonicator. Following sonication, the primary emulsion was added dropwise to 4 mL of diH2O, forming the second emulsion (water-in-oil-in-water), which was subsequently sonicated as above. Nanoparticles were further diluted in 20 mL of diH2O. Residual organic solvent was removed using a rotovap. After solvent removal, nanoparticles were collected via centrifugation in Amicon 100K filter tubes. Following a second washing step, nanoparticles were resuspended in diH2O, frozen, and stored as 100 μl aliquots containing 2 mg of nanoparticles. Where indicated, low molecular weight PLA-HPG (P7H9-2) or high molecular weight PLA-HPG (P7H3-18) was used.
Bulk bone marrow cells were treated with PLGA or PLA-HPG nanoparticles encapsulating unmodified (tcPNA 2) and serine modified (^sertcPNA 2) along with correcting donor DNA molecules.
Experiments were designed to test the effects of DNA repair inhibition on gene editing. Bulk bone marrow cells were treated with PLA-HPG nanoparticles encapsulating tcPNA 2 or ^sertcPNA 2, with or without the addition of small molecule modulators of DNA repair: RS-1, RI-1, RI-2, B0-2, or SCR-7.

Berk hemizygous mice = assay: In vivo gene editing in Berk hemizygous mice treated with nanoparticles; design: species or system mouse; conditions: nanoparticles encapsulating tcPNA 2 and donor DNA, intravenous
Text: Experiments were designed to test the ability of tcPNA 2 to drive gene editing in vivo.
Berk hemizygous mice treated with nanoparticles encapsulating unmodified SCD-tcPNA 2: H-KKK-TTJJTJT-OOO-[…]-KKK-NH2 (SEQ ID NO:5) K indicates lysine; J, pseudoisocytosine (for C) for pH-independent triplex formation. O, 8-amino-2,6,10-trioxaoctanoic acid linkers connecting the Hoogsteen and Watson-Crick domains of the tcPNAs, serine modified bases (bold and underlined) along the Watson-Crick domain and donor DNA: […]

[2] = tested on: SCD mutation (β-globin gene), HSPCs (lin−); assay: SCD gene correction by ddPCR of gDNA, HSPCs (lin−) isolated via negative selection; type: cell-based, mouse; conditions: PLGA NPs encapsulating tcPNA 2; 72 hours; comparison of three cell populations
Experimental: as §1, §2

[3] = tested on: SCD mutation (β-globin gene), CD117+ HSPCs; assay: SCD gene correction by ddPCR of gDNA, CD117+ HSPCs; type: cell-based, mouse
Experimental: Bulk bone marrow cells were treated with PLGA NPs encapsulating tcPNA 1A, 2A, 3A and correcting donor DNA molecules. 72 hours after treatment, HSPCs were isolated by CD117+ selection. gDNA was harvested from these cells and assayed for gene correction via ddPCR.
as §1

[4] = tested on: double-stranded DNA target (200 bp); assay: PNA incubation with double-stranded DNA target, triplex band; type: binding; conditions: unmodified tcPNA 2 vs modified tcPNA 2A; both temperature conditions
Experimental: Modified (tcPNA 2A) and unmodified (tcPNA 2) PNAs were incubated with a double-stranded DNA target (200 bp) at indicated temperatures.

[5] = tested on: Primary mouse bone marrow cells; assay: Cytokine expression in primary mouse bone marrow cells after NP treatment; type: cell-based; conditions: PLGA NPs encapsulating tcPNA 1A and correcting donor DNA; 48 hours after treatment
Experimental: The toxicity and safety of PNA/donor DNA delivery using nanoparticles were investigated. Primary mouse bone marrow cells were treated with PLGA nanoparticles (NPs) encapsulating tcPNA 1A and correcting donor DNA. 48 hours after treatment cells were spun, media collected, and assayed for cytokine expression.

[6] = bulk bone marrow cells, 1 uM dose
[7] = bulk bone marrow cells, 10 uM dose
[8] = PLGA NPs encapsulating tcPNA 2, 72 hours, comparison of three cell populations

## O=c1[nH]c(=S)[nH]c(N=Cc2ccccc2)c1N=Cc1ccccc1 [SCR-7]
[1]; [6]
  effect of DNA repair modulator on editing vs NP only: decreased PNA-mediated gene editing
[1]; [7]
  effect of DNA repair modulator on editing vs NP only: decreased PNA-mediated gene editing

## SCF: stem cell factor, C-kit ligand
[1]; 72 hours
  effect of added factor on gene editing frequencies by ddPCR: increased gene editing frequencies

## O=C1C(Cl)=C(N2CCOCC2)C(=O)N1c1ccc(Cl)c(Cl)c1 [RI-1]
[1]; [6]
  effect of DNA repair modulator on editing vs NP only: higher levels of editing
[1]; [7]
  effect of DNA repair modulator on editing vs NP only: reduced levels

## lys-lys-lys-TTJJTJT-OOO-TCTCCTTAAACCTGTCTT-lys-lys-lys (SEQ ID NO:5) (TTNNTNTTCTCCTTAAACCTGTCTT; PNA, lysine ends, OOO linker, chemistry not fully specified) [tcPNA 2, tail-clamp PNA oligomer targeting the β-globin gene]
Berk hemizygous mice
  gene editing in vivo: can Drive Gene Editing In Vivo
[2]
  gene editing by ddPCR, HSPCs isolated via negative selection: highest levels of editing
[1]; [8]
  gene editing by ddPCR, bulk population: appreciable editing
[1]; bulk bone marrow cells, PLGA NPs, unmodified tcPNA 2 vs mini-PEG modified tcPNA 2A, 72 hours
  level of editing (correction of the SCD mutation) by ddPCR: highest level of editing
[3]; [8]
  gene editing by ddPCR, CD117+ population: appreciable editing
[4]
  invasion of duplex DNA (triplex band): superior invasion of duplex DNA

## c1cc(CN2CCCNCCNCCCNCC2)ccc1CN1CCCNCCNCCCNCC1 [Plerixafor, plerixafor]
[1]; 72 hours
  effect of added factor on gene editing frequencies by ddPCR: increased gene editing frequencies

## tcPNA 1A: SEQ ID NO:14 tail-clamp PNA with alternating mini-PEG modified bases along the Watson-Crick domain (NNTNTTNCTTCTCCACAGGAGTCAG; alternating gamma mini-PEG modified PNA units, chemistry not fully specified)
[5]
  inflammatory cytokine expression: did not produce inflammatory cytokine expression

## O=C(Nc1ccc(Br)cc1)c1ccc(Br)c(S(=O)(=O)NCc2ccccc2)c1 [RS-1]
[1]; [6]
  effect of DNA repair modulator on editing vs NP only: reduced editing frequencies
[1]; [7]
  effect of DNA repair modulator on editing vs NP only: higher levels of editing

## tcPNA 2A: SEQ ID NO:5 tail-clamp PNA with alternating mini-PEG modified bases along the Watson-Crick domain (TTNNTNTTCTCCTTAAACCTGTCTT; alternating gamma mini-PEG modified PNA units, chemistry not fully specified)
[1]; bulk mouse bone marrow cells, PLGA NPs encapsulating tcPNA 1A, 2A, 3A and donor DNA, compared with each other
  level of gene editing as measured by ddPCR (SCD gene correction): highest level of gene editing
[3]; CD117+ HSPCs isolated 72 hours after treatment, PLGA NPs encapsulating tcPNA 1A, 2A, 3A and donor DNA, compared with each other
  level of gene editing as measured by ddPCR (SCD gene correction): highest level of gene editing

## O=c1c2ccccc2nc(/C=C/c2cccnc2)n1Cc1ccccc1 [B0-2]
[1]; bulk bone marrow cells, PLA-HPG nanoparticles encapsulating tcPNA 2 or sertcPNA 2, with or without modulator of DNA repair
  gene editing frequencies: ~12%

## ^sertcPNA 2: tc PNA 2 sequence (SEQ ID NO:5) modified with a hydroxymethyl (serine) group at the γ position along the Watson-Crick domain (TTNNTNTTCTCCTTAAACCTGTCTT; gamma-serine (hydroxymethyl) modified PNA backbone, chemistry not fully specified)
[1]; bulk bone marrow cells, PLGA or PLA-HPG nanoparticles with donor DNA, even at lower NP doses
  gene editing relative to unmodified tcPNA 2: increased gene editing appreciably
